In US6410792B1, “Amide derivatives and methods for using the same as selective neuropeptide Y receptor antagonists” (Bayer Corporation, priority 1997, dated 2002):
Read-outs that look alike come from different tables or passages of the source.

Legend:
Rat NPY5 receptor = biological target: T1, Rat NPY5 receptor (Rattus norvegicus, UniProt Q63634); test: Rat NPY5 receptor binding assay ([125I]PYY, membrane protein); settings: [125I]PYY binding, read-out: rNPY5 IC50
T1 sequence (Q63634 1-445): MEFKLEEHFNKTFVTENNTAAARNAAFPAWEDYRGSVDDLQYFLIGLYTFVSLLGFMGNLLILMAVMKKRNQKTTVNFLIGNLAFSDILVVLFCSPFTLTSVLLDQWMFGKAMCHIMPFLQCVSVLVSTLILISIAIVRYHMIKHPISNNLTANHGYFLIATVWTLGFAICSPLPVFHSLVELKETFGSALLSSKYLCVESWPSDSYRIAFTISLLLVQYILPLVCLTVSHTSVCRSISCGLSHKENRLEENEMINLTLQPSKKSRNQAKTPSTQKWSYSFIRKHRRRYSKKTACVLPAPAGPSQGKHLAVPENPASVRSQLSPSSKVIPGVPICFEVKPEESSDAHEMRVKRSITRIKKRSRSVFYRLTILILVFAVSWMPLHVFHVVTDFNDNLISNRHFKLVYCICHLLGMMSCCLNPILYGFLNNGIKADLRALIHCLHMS
Protocol: C. Human and Rat NPY5 Receptor Binding Assays
Binding assays are performed on GF/C Millipore 96well plates pretreated with 0.02% polyethylenimine. The binding buffer is 25 mM Tris, 120 mM NaCl, 5 mM KCl, 1.2 mM KH2PO4, 2.5 mM CaCl2, 1.2 mM MgSO4, 0.1% BSA and 0.5 mg/ml bacitracin, pH 7.4. Samples consist of membrane protein, 75-100 pM [125I]PYY (porcine, NEN-DuPont) and drug dilution. Nonspecific binding is defined by 1 μM PYY. After a 2 hour incubation at room temperature with constant mixing, the samples are aspirated on a vacuum manifold, and rinsed with ice-cold binding buffer. The amount of radioactivity in each well is quantitated with either gamma counting or liquid scintillation.

Human NPY5 receptor = biological target: T2, Human NPY5 receptor (Homo sapiens, UniProt Q15761); test: Human NPY5 receptor binding assay ([125I]PYY, membrane protein); settings: [125I]PYY binding, read-out: hNPY5 IC50
T2 sequence (Q15761 1-445): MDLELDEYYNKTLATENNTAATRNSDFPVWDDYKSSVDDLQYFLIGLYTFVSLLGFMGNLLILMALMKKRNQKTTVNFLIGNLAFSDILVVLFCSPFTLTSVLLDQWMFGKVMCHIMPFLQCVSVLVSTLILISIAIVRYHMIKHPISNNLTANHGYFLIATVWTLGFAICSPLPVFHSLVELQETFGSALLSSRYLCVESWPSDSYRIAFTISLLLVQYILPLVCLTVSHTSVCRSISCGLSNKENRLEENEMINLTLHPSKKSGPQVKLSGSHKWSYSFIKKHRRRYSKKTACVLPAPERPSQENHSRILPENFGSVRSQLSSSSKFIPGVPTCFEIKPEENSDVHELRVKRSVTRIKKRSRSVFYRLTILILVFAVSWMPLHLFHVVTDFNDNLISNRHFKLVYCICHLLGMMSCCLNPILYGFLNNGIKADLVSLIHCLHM
Summary of the method: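 First, membrane protein, drug dilution and 75-100 pM [125I]PYY were combined in pH 7.4 Tris saline buffer containing divalent cations and 0.1% BSA. Next, samples were mixed 2 hours at room temperature. Finally, samples were filtered, washed ice-cold and counted; 1 μM PYY gave nonspecific binding.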

Y2 receptor = biological target: T3, Y2 receptor (Homo sapiens, UniProt P49146); test: Y2 receptor binding assay ([125I]PYY, membrane protein); settings: read-out: hNPY2 IC50
T3 sequence (P49146 1-381): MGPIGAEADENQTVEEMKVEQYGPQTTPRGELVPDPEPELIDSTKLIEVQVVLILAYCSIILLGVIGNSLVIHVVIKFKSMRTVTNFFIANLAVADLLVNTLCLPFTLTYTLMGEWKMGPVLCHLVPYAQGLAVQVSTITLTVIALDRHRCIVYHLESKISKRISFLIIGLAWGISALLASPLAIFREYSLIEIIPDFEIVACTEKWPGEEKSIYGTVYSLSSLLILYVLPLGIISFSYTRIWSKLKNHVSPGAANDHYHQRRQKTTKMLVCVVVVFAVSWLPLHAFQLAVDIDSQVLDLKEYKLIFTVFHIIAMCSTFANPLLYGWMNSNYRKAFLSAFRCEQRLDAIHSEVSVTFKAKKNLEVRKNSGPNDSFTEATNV
Summary of the method: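 Filtration binding with membrane protein and drug dilution, 2 h at room temperature with mixing, radioactivity counted by gamma or scintillation. Y2: 25 pM [125I]PYY in Krebs-Ringer bicarbonate pH 7.4 with 0.01% BSA, nonspecific by 1 μM NPY. Y4/PP1: 50 pM [125I]hPP in HEPES-buffered saline pH 7.4 with protease inhibitors and 0.3% BSA, nonspecific by 1 μM hPP.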

[1] = [125I]PYY binding, membrane protein

Row | Compound | IC50 (Rat NPY5 receptor) | IC50 (Human NPY5 receptor) | IC50 (Y2 receptor; [1]) | IC50 (Y2 receptor)
1 | O=C(CNCc1ccco1)Nc1ccc(C(=O)c2ccccc2)cc1 [Compound 166, N-(4-Benzoyl-phenyl)-2-[(furan-2-ylmethyl)-amino]-acetamide] | 730 nM | 610 nM |  | 
2 | COC(=O)C=C(C)NCC(=O)Nc1ccc(C2CCCCC2)cc1 [Compound 238, 3-{[(4-Cyclohexyl-phenylcarbamoyl)-methyl]-amino}-but-2-enoic acid methyl ester] | 550 nM | 650 nM |  | 
3 | COc1cc(CCNCC(=O)Nc2ccc(C(=O)c3ccccc3)cc2)ccc1O [Compound 202, N-(4-Benzoyl-phenyl)-2-[2-(4-hydroxy-3-methoxy-phenyl)-ethylamino]-acetamide] | 53 nM | 58 nM |  | 
4 | CNC1CCN(CC(=O)Nc2ccc(C(=O)c3ccccc3)cc2)C1 (stereo not shown) [Compound 203, N-(4-Benzoyl-phenyl)-2-(3-methylamino-pyrrolidin-1-yl)-acetamide] | 180 nM | 200 nM |  | 
5 | CC(=O)OC1CC2CC1N(CC(=O)Nc1ccc(C3CCCCC3)cc1)C2 (stereo not shown) [Compound 221, Acetic acid 2-[(4-cyclohexyl-phenylcarbamoyl)-methyl]-2-aza-bicyclo[2.2.1]hept-6-yl ester] | 29 nM | 29 nM |  | 
6 | O=C(CNCCCn1ccnc1)Nc1ccc(C2CCCCC2)cc1 [Compound 234, N-(4-Cyclohexyl-phenyl)-2-(3-imidazol-1-yl-propylamino)-acetamide] | 610 nM | 950 nM |  | 
7 | C=CCC(NCC(=O)Nc1ccc(C(=O)c2ccccc2)cc1)C(=O)O (stereo not shown) [Compound 230, 2-{[(4-Benzoyl-phenylcarbamoyl)-methyl]-amino}-pent-4-enoic acid] | 2500 nM | 810 nM |  | 
8 | CCCC(CO)NCC(=O)Nc1ccc(C2CCCCC2)cc1 (stereo not shown) [Compound 216, N-(4-Cyclohexyl-phenyl)-2-(1-hydroxymethyl-butylamino)-acetamide] | > 10000 nM | 450 nM |  | 
9 | CNC1CCN(CC(=O)Nc2ccc(C3CCCCC3)cc2)C1 (stereo not shown) [Compound 193, N-(4-Cyclohexyl-phenyl)-2-(3-methylamino-pyrrolidin-1-yl)-acetamide] | 250 nM | 270 nM |  | 
10 | N#CCNCC(=O)Nc1ccc(C(=O)c2ccccc2)cc1 [Compound 211, N-(4-Benzoyl-phenyl)-2-(cyanomethyl-amino)-acetamide] | 1000 nM | 1300 nM |  | 
11 | C=CCC(NCC(=O)Nc1ccc(C2CCCCC2)cc1)C(=O)O (stereo not shown) [Compound 220, 2-{[(4-Cyclohexyl-phenylcarbamoyl)-methyl]-amino}-pent-4-enoic acid] | 720 nM | 540 nM |  | 
12 | CN(C(=O)OC(C)(C)C)C1CCN(CC(=O)Nc2ccc(C3CCCCC3)cc2)C1 (stereo not shown) [Compound 215, {1-[(4-Cyclohexyl-phenylcarbamoyl)-methyl]-pyrrolidin-3-yl)-methyl-carbamic acid tert-butyl ester] | 300 nM | 170 nM |  | 
13 | N-{[(4-Cyclohexyl-phenylcarbamoyl)-methyl]-pyrrolidin-3-yl}-2,2,2-trifluoro-acetamide [Compound 197] | 20 nM | 21 nM |  | 
14 | 2-[4-(4-Chloro-phenyl)-3,6-dihydro-2H-pyridin-1-yl]-N-(4-cyclohexyl-phenyl)-acetamide [Compound 15] |  | 2700 nM | > 5000 nM | 
15 | CC(O)C1CCN(CC(=O)Nc2ccc(C(=O)c3ccccc3)cc2)CC1 (stereo not shown) [Compound 70, N-(4-Benzoyl-phenyl)-2-[4-(1-hydroxy-ethyl)-piperidin-1-yl]-acetamide] |  | 3700 nM | > 5000 nM | 
16 | O=C(CN1CCC[C@@H]1CO)Nc1ccc(C2CCCCC2)cc1 [Compound 113, N-(4-Cyclohexyl-phenyl)-2-(2R-hydroxymethyl-pyrrolidin-1-yl)-acetamide] |  | 700 nM | > 5000 nM | 
17 | NC[C@@H]1CCCN1CC(=O)Nc1ccc(C2CCCCC2)cc1 [Compound 91, 2-(2S-Aminomethyl-pyrrolidin-1-yl)-N-(4-cyclohexyl-phenyl)-acetamide] |  | 430 nM | > 5000 nM | 
18 | O=C(CN1CCC(CCCC2CCNCC2)CC1)Nc1ccc(C(=O)c2ccccc2)cc1 [Compound 37, N-(4-Benzoyl-phenyl)-2-[4-(3-piperidin-4-yl-propyl)-piperidin-1-yl]-acetamide] |  | > 10000 nM | > 5000 nM | 
19 | O=C(CN1CCC(CCC2CCNCC2)CC1)Nc1ccc(C2CCCCC2)cc1 [Compound 54, N-(4-Cyclohexyl-phenyl)-2-[4-(2-piperidin-4-yl-ethyl)-piperidin-1-yl]-acetamide] |  | 7300 nM | > 5000 nM | 
20 | O=C(CN1CCC(O)C1)Nc1ccc(C(=O)c2ccccc2)cc1 (stereo not shown) [Compound 103, N-(4-Benzoyl-phenyl)-2-(3-hydroxy-pyrrolidin-1-yl)-acetamide] |  | 3000 nM | > 5000 nM | 
21 | O=C(CN1CCC(O)(Cc2ccccc2)CC1)Nc1ccc(C(=O)c2ccccc2)cc1 [Compound 19, N-(4-Benzoyl-phenyl)-2-(4-benzyl-4-hydroxy-piperidin-1-yl)-acetamide] |  | 400 nM | > 5000 nM | 
22 | CCCOC1(c2ccccc2)CCN(CC(=O)Nc2ccc(C(=O)c3ccccc3)cc2)CC1 [Compound 66, N-(4-Benzoyl-phenyl)-2-(4-phenyl-4-propoxy-piperidin-1-yl)-acetamide] |  | 780 nM | > 5000 nM | 
23 | NC1CCN(CC(=O)Nc2ccc(C3CCCCC3)cc2)C1 (stereo not shown) [Compound 100, 2-(3-Amino-pyrrolidin-1-yl)-N-(4-cyclohexyl-phenyl)-acetamide] |  | 2400 nM | > 5000 nM | 
24 | O=C(CN1CCN(Cc2ccccc2)CC1)Nc1ccc(C(=O)c2ccccc2)cc1 [Compound 16, N-(4-Benzoyl-phenyl)-2-(4-benzyl-piperazin-1-yl)-acetamide] |  | 9600 nM | > 5000 nM | 
25 | O=C(CNCC1CCNCC1)Nc1ccc(C(=O)c2ccccc2)cc1 [Compound 43, N-(4-Benzoyl-phenyl)-2-[(piperidin-4-ylmethyl)-amino]-acetamide] |  | > 10000 nM | > 5000 nM | 
26 | CCCC(=O)C1(c2ccccc2)CCN(CC(=O)Nc2ccc(C3CCCCC3)cc2)CC1 [Compound 75, 2-(4-Butyryl-4-phenyl-piperidin-1-yl)-N-(4-cyclohexyl-phenyl)-acetamide] |  | 9 nM |  | > 5000 nM
27 | O=C(CN1CCC(CCCC2CCNCC2)CC1)Nc1ccc(C2CCCCC2)cc1 [Compound 23, N-(4-Cyclohexyl-phenyl)-2-[4-(3-piperidin-4-yl-propyl)-piperidin-1-yl]-acetamide] |  | > 10000 nM | > 5000 nM | 
28 | O=C(CN1CCCC1c1cccnc1)Nc1ccc(C(=O)c2ccccc2)cc1 (stereo not shown) [Compound 77, N-(4-Benzoyl-phenyl)-2-(2-pyridin-3-yl-pyrrolidin-1-yl)-acetamide] |  | 2600 nM | > 5000 nM | 
29 | COc1ccc(C(=O)C2CCN(CC(=O)Nc3ccc(C4CCCCC4)cc3)CC2)cc1 [Compound 116, N-(4-Cyclohexyl-phenyl)-2-[4-(4-methoxy-benzoyl)-piperidin-1-yl]-acetamide] |  | 9500 nM | > 5000 nM | 
